The solubility is the dissolved amount per volume that the medium holds. For orientation: inhibition means the percentage by which the read-out fell short of the control.

One series deals with T1, HRAS^G12V-GppNHp (Homo sapiens, UniProt P01112, G12V).
T1 construct: expression of HRAS (1-166) HRAS^G12V or KRAS^G12V cDNA cloned into the pGEX-2T vector; made in house; host or cells: E. coli C41(DE3)
The series can be described thus: SPR binding to HRAS G12V-GppNHp. The procedure: A BIAcore T100 (GE Healthcare) was used to screen the fragment library for RAS binders. A polyclonal goat anti-GST antibody (GE Healthcare) was immobilized on a CM5 sensor chip (GE Healthcare) by the amine coupling method. To immobilize the antibody on CM5 chip, the chip was first activated by injecting 100 µl mixture of 0.2 M EDC (N-ethyl-N-(dimethylaminopropyl) carbodiimide hydrochloride) and 0.05 M NHS (N-hydroxysuccinimide) at 10 µl/min flow rate. Furthermore, 100 µg/ml anti-GST antibody in 10 mM sodium acetate, pH 5.0 was injected at 5 µl/min for 900 s and immobilized until 20,000 ~ 25,000 RU. After immobilization the chip was immediately inactivated by injecting 1 M ethanolamine, pH 8.5 at 10 µl/min for 600 s. The chip was kept running in the HBS buffer (GE Healthcare) comprising 10 mM HEPES, […], 150 mM NaCl. […] Before fragment library screening, the running buffer was replaced by 20 mM Tris, pH 8, 150 mM NaCl, 5 mM MgCl2, 5% DMSO. DMSO solvent correction curves were generated by injecting the running buffers with serial concentrations of DMSO ranging from 4.5 to 6%. For fragment screening, each compound was diluted at 200 µM or 1 mM, 5% DMSO in 20 mM Tris, pH 8, 150 mM NaCl, 5 mM MgCl2 buffer in a polypropylene 96 well plate. The individual compounds were injected at 30 µl for 60 s at 30 µl/min flow rate over flow cells Fc1, Fc2, Fc3 and Fc4. […]
A general note: Surface plasmon resonance follows binding to a sensor surface in real time, without labels.

The nature of a further series: Solubility. The format is physicochemical.
The subject of series [1] is AKT phosphorylation (Ser473) in H358 cells (KRAS^G12C). The series can be described thus: Biomarker phosphorylation assay, pAKT, H358. The format is cell-based, human. Conditions: EGF 10 min. The procedure:
Fig. 5 Abd-7 results on RAS-dependent signalling pathways and cell viability. a, b DLD-1 (a) or H358 (b) cells were serum-starved for 24 h, incubated in mono-layer with Abd-7 in a range from 2, 5, 10 and 20 μM for 3 h and stimulated with EGF 10 min. Proteins were extracted and separated by SDS-PAGE and transferred to membranes for Western analysis with anti-pAKT, anti-pERK, anti-pan AKT and anti-pan ERK. Anti-cyclophilin B antibody was the loading control. Signal was developed using standard ECL. c–e Effects of compounds Abd-2, Abd-4, Abd-5, Abd-6, and Abd-7 on the viability of human cancer cells lines was assessed for a 2-D culture of DLD-1 (mutant KRAS^G13D) cells and HT1080 cells (mutant NRAS^Q61K). The cells were treated with a dose range from 0 μM to 20 μ and incubated for 72 h when cell viability was assessed using CellTitreGlo. […] Each experiment was repeated at least three times (a, b) and four times (c, d). Where error bars are presented, they correspond to mean values ± SD of biological repeats
A total of 450,000 DLD1 or 640,000 H358 cells were seeded per well of a six well plate. Approximately, 20 h later, the medium was removed, the cells washed twice with PBS and DMEM without FBS was added and left for 24 h. The medium was removed and 2 ml of DMEM no FBS was added with the appropriate concentration of compound (DMSO, 2, 5, 10 or 20 μM) for 3 h. Cells were stimulated with EGF (50 ng/ml) for 10 min, washed once with PBS and directly lysed in SDS-Tris buffer (1% SDS, 10 mM Tris-HCl pH 7.4) supplemented with protease inhibitors (Sigma) and phosphatase inhibitors (Thermo-Fisher). Cell lysates were sonicated with a Branson Sonifier and the protein concentrations determined by using the Pierce BCA protein assay kit (Thermo-Fisher). Furthermore, 10 μg of protein were resolved on 10 or 12.5% SDS-PAGE and subsequently transferred onto a PVDF membrane (GE). The membrane was blocked (with 10% non-fat milk (Sigma) or 10% BSA (Sigma) in TBS-0.1% Tween20) and incubated overnight with primary antibody at 4 °C. […]

In brackets after ≈: the same amount, converted by molar mass.

T1 sequence (P01112 1-166 G12V): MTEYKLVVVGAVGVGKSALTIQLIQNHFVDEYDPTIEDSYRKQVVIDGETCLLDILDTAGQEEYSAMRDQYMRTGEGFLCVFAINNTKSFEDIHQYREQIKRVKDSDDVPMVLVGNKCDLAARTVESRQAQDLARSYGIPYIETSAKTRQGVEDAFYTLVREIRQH

As for `O=C(NCC1COc2ccccc2O1)c1ccco1` (centres unmarked) [Abd-2], the “binding to^G12V-GppNHp (SPR)” value at HRAS^G12V-GppNHp is “binds”. For the same compound, in “Solubility”, the solubility was found to be 446 µM (≈ 116 µg/mL).

With `COc1nc(-c2cccc3c2OCCO3)ccc1Nc1ccc(CN(C)C)cc1` [Abd-7], the “inhibition of AKT phosphorylation” value in series [1] (H358, 20 μM, 3 h) was “complete inhibition”. The “concentration at which inhibition of AKT phosphorylation initiates” value in series [1] (H358, starved 24 h, 3 h compound, Western) is 2 µM. This compound also showed an inhibition at 10 µM in series [1] (Homo sapiens, NCI-H358, H358, 10 μM, 3 h) greater than 50%.

The record behind these values is article PMC6085350, “Small molecule inhibitors of RAS-effector protein interactions derived using an intracellular antibody fragment” (Nature Communications, 2018).
